Results taken from patent US10005779B2, “1′,4′-thio nucleosides for the treatment of HCV” (priority 2013, dated 2018).
Read-outs that look alike come from different tables or passages of the source.

Assays:
[1] = biological target: T1, HCV genotype 1b NS5B polymerase containing the S282T mutation (Hepatitis C virus genotype 1b, UniProt Q9WMX2, S2701T); assay: HCV polymerase enzyme assay, S282T mutant; type: biochemical
T1 construct: recombinant HCV polymerases (with a deletion of the 21 carboxy terminal amino acids); made in house
Text: (§1) Test compounds in the form of nucleoside triphosphates were examined for inhibitory activity against purified HCV polymerase in a standard assay. Bacterial expression constructs encoding the approximately 65 kDa HCV genotype 1b NS5B protein were used to generate recombinant HCV polymerases (with a deletion of the 21 carboxy terminal amino acids). Both the wild-type genotype 1b protein and protein containing the S282T mutation were expressed and purified for use in the enzymatic activity assay.
(§2) The enzymatic activity assay measured the inhibitory effect of increasing concentrations of test compound on the incorporation of α-[^33P]-labeled nucleotide into trichloroacetic acid-precipitable material. Recombinant polymerase and synthetic RNA template were combined in reaction buffer containing ribonucleoside triphosphates, α-[^33P]-labeled nucleotide and eight concentrations of test compound in three-fold dilutions. Reactions were incubated for two hours at 30° C.
(§3) Reactions were terminated by the addition of ice-cold trichloroacetic acid and sodium pyrophosphate to promote precipitation of newly-synthesized ribonucleic acid. Precipitable material from the reactions was collected by filtration onto 96-well filter plates, washed extensively with water, and quantified by liquid scintillation.
(§4) The inhibitory activity of test compounds was determined by fitting results to dose-response curves using XLfit software.

[2] = biological target: T2, wild-type HCV genotype 1b NS5B polymerase (Hepatitis C virus genotype 1b, UniProt Q9WMX2); assay: HCV polymerase enzyme assay, wild-type; type: biochemical
T2 construct: recombinant HCV polymerases (with a deletion of the 21 carboxy terminal amino acids); made in house
Text: as §1, §2, §3, §4

[3] = Cytotoxicity evaluation, CellTiter-Blue Cell Viability Assay; type: cell-based; settings: human, Zluc cells (HCV replicon cells)
Description: For cytotoxicity evaluation, Zluc cells were treated with compound as described herein, and cell viability was monitored using the CellTiter-Blue Cell Viability Assay (Promega) by adding 20 μL of the assay solution to each well. The plates were then incubated at 37° C./5% CO2 for at least 3 hours.

[4] = tested on: HCV genotype 1b replicon in Huh-7-derived cell line (Zluc); assay: microbe, parasite or virus in culture; type: cell-based; settings: Hepatitis C virus, read-out: HCV Replicon EC50
Description: Huh-7-derived cell line (Zluc) that harbors an HCV genotype 1b replicon and a luciferase reporter gene was grown in Dulbecco's Modified Eagle Medium (DMEM) supplemented with 10% fetal bovine serum, 2 mM GlutaMAX, 1% MEM nonessential amino acids, 100 IU/mL penicillin, 100 μg/mL streptomycin, and 0.5 mg/mL Geneticin® (G418). For dose response testing the cells were seeded in 96-well plates at 7.5×10^3 cells per well in a volume of 50 μL, and incubated at 37° C./5% CO2. Drug solutions were made up freshly in Huh-7 media as 2× stocks. Ten additional 5-fold dilutions were prepared from these stocks in DMEM without G418. At least three hours after Zluc cells were seeded, drug treatment was initiated by adding 50 μL of drug dilutions to the plates in duplicate. […] Cells were then incubated at 37° C./5% CO2. Alternatively, compounds were tested at two concentrations (1 μM and 10 μM). […] For this, media was removed from the plates via gentle tapping. Fifty microliters of ONE-glo luciferase assay reagent was added to each well. […] The EC50 values were calculated from dose response curves from the resulting best-fit equations determined by Microsoft Excel and XLfit 4.1 software.

[5] = Zluc cells, 72 hours of incubation, luciferase readout

SMILES	IC50 [1] [nM]	IC50 [2] [nM]	CC50 at 72 h [3] [µM]	EC50 [4, 5] [µM]	EC50 ([4]; 72 h) [µM]
Nc1nc2c(ncn2[C@@H]2S[C@H](COP(=O)(O)OP(=O)(O)OP(=O)(O)O)[C@@H](O)[C@H]2O)c(=O)[nH]1 [Compound 203]	1000 to 10000	250 to 1000	–	–	–
C[C@@]1(O)[C@H](O)[C@@H](COP(=O)(O)OP(=O)(O)OP(=O)(O)O)S[C@H]1n1ccc(=O)[nH]c1=O [Compound 201]	> 10000	1000 to 10000	–	–	–
CC(C)OC(=O)[C@H](C)N[P@@](=O)(OC[C@H]1S[C@@H](n2ccc(=O)[nH]c2=O)[C@H](O)[C@@H]1O)Oc1ccccc1 [Compound 2bi]	–	–	> 50	> 10	–
CC(C)(C)C(=O)SCCOP(=O)(NCc1ccccc1)OC[C@H]1S[C@@H](n2ccc(=O)[nH]c2=O)[C@H](O)[C@@H]1O (mixture of isomers) [3 mixture of diastereomers]	–	–	> 50	> 10	–
CC(C)OC(=O)[C@H](C)N[P@](=O)(OC[C@H]1S[C@@H](n2ccc(=O)[nH]c2=O)[C@H](O)[C@@H]1O)Oc1ccccc1 [Compound 2bii]	–	–	> 50	> 10	–
CC(C)OC(=O)[C@H](C)NP(=O)(OCCSC(=O)C(C)(C)C)OC[C@H]1S[C@@H](n2ccc(=O)[nH]c2=O)[C@H](O)[C@@H]1O (single isomer, unassigned) [4b diastereomer 1]	–	–	> 50	> 10	–
O=c1ccn([C@@H]2S[C@H](COP(=O)(O)OP(=O)(O)OP(=O)(O)O)[C@@H](O)[C@H]2O)c(=O)[nH]1 [Compound 202]	250 to 1000	250 to 1000	–	–	–
CC(C)OC(=O)[C@@H](C)NP(=O)(OC[C@H]1S[C@@H](n2ccc(=O)[nH]c2=O)[C@H](O)[C@@H]1O)Oc1ccccc1 (mixture of isomers) [2a mixture of diastereomers]	–	–	> 50	> 10	–
CC(C)OC(=O)[C@H](C)NP(=O)(OC[C@H]1S[C@@H](n2ccc(=O)[nH]c2=O)[C@](C)(O)[C@@H]1O)Oc1ccccc1 (single isomer, unassigned) [1b diastereomer 1]	–	–	> 50	–	> 10
CC(C)OC(=O)[C@H](C)NP(=O)(OCCSC(=O)C(C)(C)C)OC[C@H]1S[C@@H](n2ccc(=O)[nH]c2=O)[C@H](O)[C@@H]1O (mixture of isomers) [4b mixture of diastereomers]	–	–	> 50	> 10	–
